Results as given in US20260345723A1, “Treatments for Opioid-Induced Respiratory Depression” (priority 2023, published 2026).

Columns and labels:
[1] = tested on: heroin self-administration; assay: Heroin intravenous self-administration (FR and PR); assay type: in vivo, rat (male Sprague Dawley); settings: RAP-103 1 mg/kg IP
Description: Adult male Sprague Dawley (226-275 g) were purchased from Taconic Laboratories and maintained on a 12-hour/12-hour light/dark cycle with the lights off at 9:30 a.m. in a temperature- and humidity-controlled animal care facility. For the duration of the experiment, rats were housed two per cage and given unrestricted access to food and water at all times when in the home cage.
Rats were anesthetized using vaporized isoflurane delivered via nebulizer. An indwelling silastic catheter was threaded subcutaneously over the shoulder blade, inserted in the jugular vein and sutured in place. The catheter routed to a cotton back mount platform that was sutured below the skin between the shoulder blades. Post-operation, catheters were flushed daily with 0.2 ml of timentin (0.93 mg/mL) dissolved in heparinized saline and covered with magnetic aluminum caps.
Following 5 days of post-operative recovery, rats began daily intravenous self-administration of heroin in Med-Associates operant chambers for at least 10 d. […] During IVSA, infusions of 0.1 mg/kg/inf heroin were rewarded to the animal after pressing the active lever. […]
Progressive ratio (PR) schedules of drug delivery are used to determine the ‘motivational’ state of an animal and drug reinforcing efficacy. […] BP is a dependent measure used to quantify the degree to which the subject will work to get the next administration of the drug which serves as a reinforcer in the self-administration paradigm. […]
(§1) Respiratory depression data were analyzed by two-way ANOVA (RAP-103 pretreatment×morphine treatment) followed by a Bonferroni's multiple comparison test. Physical dependence data were analyzed by a Student's t-test. Self-administration (SA) time-course data for heroin and sucrose were analyzed by two-way ANOVA (RAP-103 treatment x day) followed by a Bonferroni's multiple comparison test. SA PR challenge data were analyzed by a Student's t-test. Protein and mRNA data were analyzed by two-way ANOVA (RAP-103 pretreatment x morphine treatment) followed by a Newman-Keuls post-hoc analysis. […]

[2] = tested on: tyrosine hydroxylase (TH); assay: TH protein levels in mesolimbic pathway, morphine abstinence (Western blot); assay type: in vivo, rat; settings: RAP-103 + morphine, vs drug-naïve (P<0.05) and morphine only (P<0.01)
Method: For 10 d, rats were given two injections during the dark cycle. One injection (RAP-103 [1 mg/kg] or saline) was delivered IP, and 5 min later the second injection (morphine [5 mg/kg] or saline) was given SC. Brain tissue was collected 24 h after the last morphine or saline injection for protein analysis of chemokine and opioid markers in the ventral tegmental area (VTA), nucleus accumbens (NAC) and prefrontal cortex (PFC).
For immunoblotting experiments, tissue lysates were obtained using RIPA buffer, and were then homogenized. Samples were centrifuged for 15 minutes at 12,000 g. Supernatant were transferred to new tubes. […] Immunoreactive bands were quantified by Image Studio (Licor Ver 2.0) and normalized to the bands of GAPDH. […]
as §1

[3] = assay type: in vivo, Rhesus macaque (Macaca mulatta); settings: seven days
[4] = assay type: in vivo, rodents and non-human primates (Rhesus macaque)
[5] = tested on: mu-opioid receptor (OPRM1)
CCR2 [6] = settings: CCR2, monocyte chemotaxis; read-out: half maximal inhibitory concentration IC50; cited from earlier work
CCR2 [7] = settings: cited from earlier work
CCR5 = settings: cited from earlier work
CCR8 [8] = settings: cited from earlier work
CXCR4 = settings: cited from earlier work
neuropathic pain = settings: previous research; cited from earlier work
[9] = tested on: molecular hallmarks of neuropathic pain; settings: previous research; cited from earlier work
CCR8 [10] = settings: mechanism involving CCR8; cited from earlier work

Substance: D-Thr-D-Thr-D-Asn-D-Tyr-D-Thr [RAP-103]
- responding on the inactive lever [1]: did not impact responding on the inactive lever
- heroin PR breakpoint ([1]; PR challenge, P<0.05 vs saline): significantly lower breakpoints
- active lever responding (heroin SA, FR-1) ([1]; heroin 0.1 mg/kg/inf, days 8 (P<0.05), 9 and 10 (P<0.001)): significantly reduced active lever responding
- TH protein levels, PFC [2]: significantly elevated
- acute toxicity [3]: no acute toxicity
- body weights [3]: no RAP-103-related changes
- clinical observations [3]: no RAP-103-related changes
- brain entry, oral compared to IV dosing ([4]; FIG. 10A): preferentially entered the brain by oral compared to IV dosing
- brain entry ([4]; oral and IV dosing, rodents and non-human primates): quickly entered the brain
- OPRM1 protein levels, PFC ([5]; RAP-103 + morphine, vs drug-naïve (P<0.01) and morphine only (P<0.05)): significantly elevated
- OPRM1 protein levels, VTA ([5]; RAP-103 pretreatment 1 mg/kg IP + morphine, P<0.05): normalized the morphine-induced enhancement in OPRM1 levels
- IBA1 mRNA levels, NAC (IBA1 mRNA; RAP-103 + morphine vs drug-naïve and morphine by itself, P<0.01): significantly enhanced
- IBA1 mRNA, PFC (IBA1 mRNA; RAP-103/morphine exposure, P>0.05): significant changes in GFAP or IBA1 were not detected
- IBA1 mRNA levels, VTA (IBA1 mRNA; RAP-103 pretreatment vs drug-naïve, P<0.05): significantly increased IBA1 mRNA levels
- microglial mRNA levels, VTA and NAC (IBA1 mRNA; morphine-naïve and morphine-abstinent rats): enhanced microglial mRNA levels
- IC50 (CCR2 [6]): 4.2 pM
- inhibition of chemokine ligand binding, CCR2 (CCR2 [7]): at least partially inhibits
- inhibition of chemokine ligand binding, CCR5 (CCR5): at least partially inhibits
- inhibition of chemokine ligand binding, CCR8 (CCR8 [8]): at least partially inhibits
- inhibition of chemokine ligand binding, CXCR4 (CXCR4): at least partially inhibits
- mechanical allodynia (neuropathic pain): attenuate
- thermal hyperalgesia (neuropathic pain): attenuate
- cell membrane ruffling [9]: downregulate
- immune cell migration [9]: downregulate
- phagocytosis [9]: downregulate
- microglial chemotaxis (CCR8 [10]): inhibit
- microglial morphological change (CCR8 [10]): inhibit
